The results in this text go back to patent US10246487B2, “Azaindoline compounds as granzyme B inhibitors” (viDA Therapeutics Inc., priority 2014, dated 2019).

Experiment [1] deals with T1, GzmB (Homo sapiens, UniProt P10144). In words: Inhibition of cell detachment by GzmB assay (HDFa fibroblasts, MTS). The class given is cell-based. The settings on record: 50 uM inhibitor, 100 nM GzmB, HDFa primary human fibroblasts, 7 hours; read-out: Percent Inhibition of cell detachment at 50uM. As to the method: HDFa primary human fibroblasts were plated at 10 k/well in 200 ul, approximately 20 hrs before treatment. The next day, controls and 100 nM GzmB (recombinant, human) plus or minus inhibitor treatments were prepared in serum-free media. GzmB and inhibitor were incubated for 20 minutes at RT before adding to cells. Before addition, media and serum was removed from the cells and the cells were washed with PBS (1×), using pipettes to prevent disturbing the cells. Treatment preparations (100 ul) were added to the wells and incubated for 7 hours in a tissue culture incubator. After 7 hours, media and treatments were removed and the cells were washed with PBS (1×) to removed detached cells, using pipettes only. Phase pictures were taken then the PBS was removed and replaced with 100 uL of serum-free media and 20 uL of MTS and the cells were allowed to incubate for 3 hours in a cell culture incubator. After 3 hours the absorbance was read at 490 nm and a percent inhibition value for the treatments with inhibitors was determined from the control wells.
T1 sequence (P10144 21-247): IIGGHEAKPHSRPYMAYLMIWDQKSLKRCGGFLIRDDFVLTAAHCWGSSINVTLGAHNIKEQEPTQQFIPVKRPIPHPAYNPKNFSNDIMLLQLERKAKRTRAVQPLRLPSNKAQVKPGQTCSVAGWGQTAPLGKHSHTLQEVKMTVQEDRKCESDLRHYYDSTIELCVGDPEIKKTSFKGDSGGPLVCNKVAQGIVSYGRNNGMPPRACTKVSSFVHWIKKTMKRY

The target in experiment [2] is T1, GzmB. The experiment in a line: Inhibition of fibronectin cleavage by GzmB. Type of experiment: biochemical. The settings on record: 20 nM granzyme B; for inhibition at 0.62 µM: 0.62 uM inhibitor, read-out: Percent Inhibition at Inhibitor Concentration 0.62 uM; for inhibition at 5.56 µM: 5.56 uM inhibitor, read-out: Percent Inhibition at Inhibitor Concentration 5.56 uM; for inhibition at 50 µM: 50 uM inhibitor, read-out: Percent Inhibition at Inhibitor Concentration 50 uM. As for the experimental part:
Black, 96 well high-binding assay plates (Griener Bio-one) were treated overnight at 4° C. with 40 uL of 8 ug/mL Hilyte Fluor 488 labeled Fibronectin (Cytoskeleton, Inc). After fibronectin coating, plates were washed 3 times in buffer (20 mM Tris-HCl, pH 7.4, 20 mM NaCl) then once with granzyme B assay buffer (50 mM HEPES, pH 7.5, 0.1% CHAPS). After washing, 50 μL of granzyme B assay buffer was added to each fibronectin-coated well. In a separate non-binding 96 well assay plate 5 μL of 20× inhibitor serial dilution stocks were added to 45 μL of 2.22× GzmB mix to establish inhibition (enzyme/inhibitor mixes were all prepared in granzyme B assay buffer and were incubated first at room temperature for 20 minutes, then at 30° C. for another 10 minutes). After incubation, 50 μL of this 2× enzyme/inhibitor mix was added to the corresponding coated well to initiate fibronectin cleavage (20 nM final granzyme B concentration, 8-point inhibitor dilution series starting at 50 uM). The assay was conducted at 30° C. in the TECAN plate reader (TECAN INFINITE® M1000 Pro), which was programmed to monitor the kinetic fluorescence polarization signal (filter set Ex/Em 470 nm/527 nm) with readings taken every minute, for 1 hour. Proteolytic activity was evaluated as the rate of fluorescence enhancement in the parallel emission over the linear range of the reaction. % Inhibition values were calculated from assay controls and the resulting date is shown in Table 7.

For the compound `CC[C@H](C)[C@H](NC(=O)CCC(=O)O)C(=O)N[C@@H](CCC(=O)O)C(=O)N1c2ncccc2C[C@H]1C(=O)NCc1nn[nH]n1` [Example C4, (S)-5-((S)-2(((2H-tetrazol-5-yl)methyl)carbamoyl)-2,3-dihydro-1H-pyrrolo[2,3-B]pyridin-1-yl)-4-((2S,3S)-2-(3-carboxypropanamido)-3-methylpentanamido)-5-oxopentanoic acid], the inhibition at 50 µM on GzmB [1] was determined as 100%. At GzmB [2], the inhibition at 0.62 µM was found to be 45%, the inhibition at 5.56 µM stood at 79% and the inhibition at 50 µM turned out to be 98%.
Regarding `CC(C)[C@H](NC(=O)CCC(=O)O)C(=O)N[C@@H](CCC(=O)O)C(=O)N1c2ncccc2C[C@H]1C(=O)NCc1nn[nH]n1` [Example C17, (S)-5-((S)-2-(((2H-tetrazol-5-yl)methyl)carbamoyl)-2,3-dihydro-1H-pyrrolo[2,3-B]pyridin-1-yl)-4-((S)-2-(3-carboxypropanamido)-3-methylbutanamido)-5-oxopentanoic acid], on GzmB [2], the inhibition at 0.62 µM was 56%, the inhibition at 5.56 µM turned out to be 77% and the inhibition at 50 µM was 94%.
The like results for `CC[C@H](C)[C@H](NC(=O)Cc1nn[nH]n1)C(=O)NCC(=O)N1c2ncccc2C[C@H]1C(=O)NCc1nn[nH]n1` [Example A1, (S)-1-(2-((2S,3S)-2-(2-(2H-tetrazol-5-yl)acetamido)-3-methylpentanamido)acetyl)-N-((2H-tetrazol-5-yl)methyl)-2,3-dihydro-1H-pyrrolo[2,3-B]pyridine-2-carboxamide] were, in that order, 66%, 82% and 88%.
As to `CC[C@H](C)[C@H](NC(=O)Cc1ccccc1)C(=O)N[C@@H](CCC(=O)O)C(=O)N1c2ncccc2C[C@H]1C(=O)NCc1nn[nH]n1` [Example C9, (S)-5-((S)-2-(((2H-tetrazol-5-yl)methyl)carbamoyl)-2,3-dihydro-1H-pyrrolo[2,3-B]pyridin-1-yl)-4-((2S,3S)-3-methyl-2-(2-phenylacetamido)pentanamido)-5-oxopentanoic acid], on GzmB [2], the inhibition at 0.62 µM turned out to be 58%, the inhibition at 5.56 µM came to 81% and the inhibition at 50 µM amounted to 91%.
